Assay results: patent publication US9918985B2, “Compounds and their use as BACE inhibitors” (ASTRAZENECA AB, priority 2010, dated 2018)

Legend:
[1] = test system: sAPPβ release in SH-SY5Y cells; test: sAPPβ release assay; assay type: cell-based; conditions: 17 h incubation
Description: Thaw cells and seed at a conc. of around 10000 cells/well in DMEM/F-12 with Glutamax, 10% FCS and 1% non-essential amino acids to a 384-well tissue culture treated plate, 100 μL cell susp/well. […] The cell medium was removed, followed by addition of 30 μL compound diluted in DMEM/F-12 with Glutamax, 10% FCS, 1% non-essential amino acids and 1% PeSt to a final conc. of 1% DMSO. The compounds were incubated with the cells for 17 h (overnight) at 37° C., 5% CO2. Meso Scale Discovery (MSD) plates were used for the detection of sAPPIβ release. MSD sAPPIβ plates were blocked in 1% BSA in Tris wash buffer (40 μL/well) for 1 h on shake at r.t. and washed 1 time in Tris wash buffer (40 μL/well). 20 μL of medium was transferred to the pre-blocked and washed MSD sAPPIβ microplates, and the cell plates were further used in an ATP assay to measure cytotoxicity. The MSD plates were incubated with shaking at r.t. for 2 h and the media discarded. 10 μL detection antibody was added (1 nM) per well followed by incubation with shaking at r.t. for 2 h and then discarded. 40 μL Read Buffer was added per well and the plates were read in a SECTOR Imager.

[2] = target: human β-Secretase (soluble part, sBACE-Fc) (Homo sapiens (Human), UniProt P56817); test: TR-FRET assay; assay type: biochemical; conditions: standard TR-FRET assay, 15 minutes reaction at r.t.
human β-Secretase (soluble part, sBACE-Fc), sequence (P56817 22-460): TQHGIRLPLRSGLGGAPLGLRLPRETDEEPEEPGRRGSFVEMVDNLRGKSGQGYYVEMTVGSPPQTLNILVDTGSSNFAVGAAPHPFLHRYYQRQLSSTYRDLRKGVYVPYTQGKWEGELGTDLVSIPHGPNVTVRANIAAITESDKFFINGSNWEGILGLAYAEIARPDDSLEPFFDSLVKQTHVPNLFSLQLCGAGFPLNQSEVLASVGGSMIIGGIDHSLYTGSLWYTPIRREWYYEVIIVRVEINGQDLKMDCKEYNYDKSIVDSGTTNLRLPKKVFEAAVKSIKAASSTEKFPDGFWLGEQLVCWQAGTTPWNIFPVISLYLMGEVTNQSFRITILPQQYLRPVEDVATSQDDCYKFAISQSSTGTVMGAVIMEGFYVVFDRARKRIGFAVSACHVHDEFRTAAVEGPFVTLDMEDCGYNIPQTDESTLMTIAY
Description: The β-secretase enzyme used in the TR-FRET is prepared as follows:
The cDNA for the soluble part of the human β-Secretase (AA 1-AA 460) was cloned using the ASP2-Fc10-1-IRES-GFP-neoK mammalian expression vector. The gene was fused to the Fc domain of IgG1 (affinity tag) and stably cloned into HEK 293 cells.
The robotic systems Biomek FX and Velocity 11 were used for all liquid handling and the enzyme and substrate solutions were kept on ice until they were placed in the robotic system. Enzyme (9 μl) was added to the plate then 1 μl of compound in dimethylsulphoxide was added, mixed and pre-incubated for 10 minutes. Substrate (10 μl) was then added, mixed and the reaction proceeded for 15 minutes at r.t. The reaction was stopped with the addition of Stop solution (7 μl, NaAcetate, pH 9). […] The dimethylsulphoxide control, instead of test compound, defined the 100% activity level and 0% activity was defined by wells lacking enzyme (replaced with reaction buffer).

CCC1=NC2(N=C1N)c1cc(-c3cncc(Cl)c3)ccc1C[C@]21CC[C@@H](OC)CC1 (single isomer, unassigned; isomer 1) [Example 66 Isomer 1, (1r,4r)-6′-(5-chloropyridin-3-yl)-5″-ethyl-4-methoxy-3′H-dispiro[cyclohexane-1,2′-indene-1′,2″-imidazol]-4″-amine]
IC50 [1]: 0.0016 µM

CC#Cc1cncc(-c2ccc3c(c2)C2(N=C(N)C(CC)=N2)[C@]2(CC[C@H](OC)CC2)C3)c1 (single isomer, unassigned; isomer 1) [Example 68 Isomer 1, (1r,4r)-5″-ethyl-4-methoxy-6′-[5-(prop-1-yn-1-yl)pyridin-3-yl]-3′H-dispiro[cyclohexane-1,2′-indene-1′,2″-imidazol]-4″-amine]
IC50 [1]: 0.00038 µM

CCC1=NC2(N=C1N)c1cc(-c3cccc(C#N)c3)ccc1C[C@]21CC[C@@H](OC)CC1 (single isomer, unassigned; isomer 1) [Example 71 Isomer 1, 3-[(1r,4r)-4″-amino-5″-ethyl-4-methoxy-3′H-dispiro-[cyclohexane-1,2′-indene-1′,2″-imidazol]-6′-yl]benzonitrile]
IC50 [1]: 0.0052 µM

CCC1=NC2(N=C1N)c1cc(-c3cccc(C#N)c3)ccc1C[C@]21CC[C@@H](OC)CC1 (single isomer, unassigned; isomer 2) [Example 71 Isomer 2, 3-[(1r,4r)-4″-amino-5″-ethyl-4-methoxy-3′H-dispiro-[cyclohexane-1,2′-indene-1′,2″-imidazol]-6′-yl]benzonitrile]
IC50 [1]: 0.763 µM

CO[C@H]1CC[C@]2(CC1)Cc1ccc(-c3ccc(F)cc3F)cc1[C@@]21N=C(C)C(N)=N1 [Example 103, (1r,1′R,4R)-6′-(2,4-Difluorophenyl)-4-methoxy-5″-methyl-3′H-dispiro[cyclohexane-1,2′-indene-1′,2″-imidazol]-4″-amine]
IC50 [2]: 0.034 µM

CCO[C@H]1CC[C@]2(CC1)Cc1ccc(Br)cc1C21N=C(C)C(N)=N1 (stereo partly drawn) [Example 130, (1r,4r)-6′-Bromo-4-ethoxy-5″-methyl-3′H-dispiro[cyclohexane-1,2′-indene-1′,2″-imidazol]-4″-amine]
IC50 [2]: 0.842 µM
